This is an account of results in patent US6326361A, “Gangliosides with immunosuppressive activity” (The Regents of the University of California, priority 1993, dated 2001).

Assay [1] relates to normal human peripheral blood mononuclear cells (PBMC). It counts as cell-based. The following applies: for IC90: tetanus toxoid, 2-3 separate experiments/ganglioside, read-out: ID90 (ganglioside concentration required to cause 90% inhibition of the lymphoproliferative response).
For assay [2] the test system is unchanged. As to the kind of experiment: Inhibition of normal human lymphoproliferative responses to a panel of mitogens and soluble antigens (3H-thymidine uptake). It counts as cell-based. The following applies: 0.5% plasma; for 3H-thymidine uptake: mean of triplicate cultures.
The mark [3] stands for this setting: Candida Antigen, ganglioside 2.5 μM.
The mark [4] stands for this setting: Candida Antigen, ganglioside 10 μM.
Setting [5] is: Diptheria Toxoid, ganglioside 2.5 μM.
Where [6] appears, read: Diptheria Toxoid, ganglioside 10 μM.
Setting [7] is: Tetanus Toxoid, ganglioside 10 μM.

asialo-GM1 [reference compound]: the “immunosuppressive activity (in words)” value in assay [1] is recorded as “does not substantially alter activity”.
On to GD1a, for which the “% inhibition” value in assay [2] (setting [3]) was 45%; in assay [2] (setting [4]) it was 84%; in assay [2] (ConA, ganglioside 2.5 μM) it was 0%; in assay [2] (ConA, ganglioside 10 μM), 37%; in assay [2] (setting [5]) it was 60%; in assay [2] (setting [6]) it was 85%. For the same substance, the “% inhibition” value came to 3% in assay [2] (PHA, ganglioside 2.5 μM); 11% in assay [2] (PHA, ganglioside 10 μM); 7% in assay [2] (PWM, ganglioside 2.5 μM); 68% in assay [2] (PWM, ganglioside 10 μM); 88% in assay [2] (setting [7]). Further, the 3H-thymidine uptake in assay [2] (setting [3]) turned out to be 3.2 net cpm; in assay [2] (setting [4]) it was 0.9 net cpm; in assay [2] (ConA, ganglioside 2.5 μM) it was 84.3 net cpm; in assay [2] (ConA, ganglioside 10 μM), 49.0 net cpm; in assay [2] (setting [5]) it was 2.1 net cpm; in assay [2] (setting [6]), 0.8 net cpm. Further, the 3H-thymidine uptake was 75.4 net cpm in assay [2] (PHA, ganglioside 2.5 μM); 69.2 net cpm in assay [2] (PHA, ganglioside 10 μM); 13.0 net cpm in assay [2] (PWM, ganglioside 2.5 μM); 4.5 net cpm in assay [2] (PWM, ganglioside 10 μM); 8.8 net cpm in assay [2] (Tetanus Toxoid, ganglioside 2.5 μM); 3.2 net cpm in assay [2] (setting [7]). In addition, the IC90 in assay [1] came to 2.3 µM.
On to “galactosylceramide [asialo-GM4, reference compound]”, for which, in assay [1] (tetanus toxoid-induced lymphoproliferation, read-out: ID50 (the source's name)), the IC50 was determined as 13 µM.
As to sialosylceramide [GM5], the “predicted immunosuppressive activity (in words)” value in assay [1] (inferred from Table 2 trend) was “very active as an immunosuppressant”.
Consider GT1b, for which the IC90 in assay [1] was determined as 2.8 µM.
GD1b: the IC90 in assay [1] came to 4.5 µM.
